From PubChem BioAssay (NCI)
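Step 1: Grow cells in 96-well plates. Step 2: Expose to compound for 48 hours at 5 concentrations. Step 3: Interpolate endpoints linearly; if unreached, use highest concentration. Abbreviation: GI50, concentration required for 50% inhibition of growth. TGI marks complete inhibition of growth.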

Columns and labels:
Experiment in all cases: NCI tumour cell line growth inhibition, 48 h
HCT-15 colon = system: HCT-15 colon
ACHN renal = system: ACHN renal
HCT-116 colon = system: HCT-116 colon
UACC-257 melanoma = system: UACC-257 melanoma
HS 578T breast = system: HS 578T breast
TK-10 renal = system: TK-10 renal
OVCAR-8 ovarian = system: OVCAR-8 ovarian
COLO 205 colon = system: COLO 205 colon
M14 melanoma = system: M14 melanoma
BT-549 breast = system: BT-549 breast
HL-60(TB) leukemia = system: HL-60(TB) leukemia
T-47D breast = system: T-47D breast
NCI/ADR-RES ovarian = system: NCI/ADR-RES ovarian
HOP-92 NSCLC = system: HOP-92 NSCLC
MALME-3M melanoma = system: MALME-3M melanoma
SN12C renal = system: SN12C renal
SF-268 CNS = system: SF-268 CNS
NCI-H522 lung = system: NCI-H522 lung
SF-295 CNS = system: SF-295 CNS
SF-539 CNS = system: SF-539 CNS
SW-620 colon = system: SW-620 colon
SK-MEL-2 melanoma = system: SK-MEL-2 melanoma
UACC-62 melanoma = system: UACC-62 melanoma
K-562 leukemia = system: K-562 leukemia
MCF7 breast = system: MCF7 breast
MDA-MB-231 breast = system: MDA-MB-231 breast
NCI-H226 lung = system: NCI-H226 lung
SK-OV-3 ovarian = system: SK-OV-3 ovarian
SK-MEL-5 melanoma = system: SK-MEL-5 melanoma
A498 renal = system: A498 renal
UO-31 renal = system: UO-31 renal
CAKI-1 renal = system: CAKI-1 renal
MDA-MB-435 = system: MDA-MB-435
OVCAR-3 ovarian = system: OVCAR-3 ovarian
NCI-H460 lung = system: NCI-H460 lung
RXF 393 renal = system: RXF 393 renal
IGROV1 ovarian = system: IGROV1 ovarian
PC-3 prostate = system: PC-3 prostate
KM12 colon = system: KM12 colon
HT29 colon = system: HT29 colon
SK-MEL-28 melanoma = system: SK-MEL-28 melanoma
U251 CNS = system: U251 CNS
OVCAR-5 ovarian = system: OVCAR-5 ovarian
A549 NSCLC = system: A549 NSCLC
786-0 renal = system: 786-0 renal
HCC-2998 colon = system: HCC-2998 colon
HOP-62 NSCLC = system: HOP-62 NSCLC
SNB-75 CNS = system: SNB-75 CNS
LOX IMVI melanoma = system: LOX IMVI melanoma
SNB-19 CNS = system: SNB-19 CNS
MOLT-4 leukemia = system: MOLT-4 leukemia
DU-145 prostate = system: DU-145 prostate
OVCAR-4 ovarian = system: OVCAR-4 ovarian
SR leukemia = system: SR leukemia
EKVX NSCLC = system: EKVX NSCLC

`Cc1cc2nc3c4cc(Cl)ccc4n(CC(=O)NCCN(C)C)c3nc2cc1C` showed a GI50 (HCT-15 colon) of 1.86 µM, a TGI (HCT-15 colon) of 4.01 µM and a GI50 (ACHN renal) of 1.5 µM. It also gave a TGI (ACHN renal) of 2.82 µM, a GI50 (HCT-116 colon) of 1.73 µM and a TGI (HCT-116 colon) of 3.29 µM. For the same compound, the GI50 (UACC-257 melanoma) was 1.87 µM, the TGI (UACC-257 melanoma) was 3.97 µM and the GI50 (HS 578T breast) was 13.5 µM. The TGI (HS 578T breast) was 35.5 µM, the GI50 (TK-10 renal) was 19.7 µM and the TGI (TK-10 renal) was 33.9 µM. For the same compound, the GI50 (OVCAR-8 ovarian) was 1.91 µM, the TGI (OVCAR-8 ovarian) was 3.87 µM and the GI50 (COLO 205 colon) was 75.6 µM. The TGI (COLO 205 colon) was over 100 µM, the GI50 (M14 melanoma) was 1.64 µM and the TGI (M14 melanoma) was 3.11 µM. For the same compound, the GI50 (BT-549 breast) was 13.6 µM, the TGI (BT-549 breast) was 26.8 µM and the GI50 (HL-60(TB) leukemia) was 1.91 µM. For the same compound, the TGI (HL-60(TB) leukemia) was 4.57 µM, the GI50 (T-47D breast) was over 100 µM and the TGI (T-47D breast) was over 100 µM. The GI50 (NCI/ADR-RES ovarian) was 5.64 µM, the TGI (NCI/ADR-RES ovarian) was 18.5 µM and the GI50 (HOP-92 NSCLC) was 2.2 µM. It also gave a TGI (HOP-92 NSCLC) of 22.8 µM, a GI50 (MALME-3M melanoma) of 1.69 µM and a TGI (MALME-3M melanoma) of 3.2 µM. It also gave a GI50 (SN12C renal) of 15.2 µM, a TGI (SN12C renal) of 29.4 µM and a GI50 (SF-268 CNS) of 13.9 µM. The TGI (SF-268 CNS) was 30.5 µM, the GI50 (NCI-H522 lung) was 12.7 µM and the TGI (NCI-H522 lung) was 25.9 µM. It also gave a GI50 (SF-295 CNS) of 16.4 µM, a TGI (SF-295 CNS) of 29.9 µM and a GI50 (SF-539 CNS) of 1.74 µM. It also gave a TGI (SF-539 CNS) of 3.21 µM, a GI50 (SW-620 colon) of 1.57 µM and a TGI (SW-620 colon) of 3.21 µM. The GI50 (SK-MEL-2 melanoma) was 16 µM, the TGI (SK-MEL-2 melanoma) was 29.8 µM and the GI50 (UACC-62 melanoma) was 2.14 µM. For the same compound, the TGI (UACC-62 melanoma) was 5.26 µM, the GI50 (K-562 leukemia) was 2.28 µM and the TGI (K-562 leukemia) was 7.36 µM. The GI50 (MCF7 breast) was 1.48 µM, the TGI (MCF7 breast) was 3.15 µM and the GI50 (MDA-MB-231 breast) was 2.25 µM. For the same compound, the TGI (MDA-MB-231 breast) was 6.58 µM, the GI50 (NCI-H226 lung) was 9.43 µM and the TGI (NCI-H226 lung) was 26.1 µM. The GI50 (SK-OV-3 ovarian) was 14.3 µM, the TGI (SK-OV-3 ovarian) was 29.1 µM and the GI50 (SK-MEL-5 melanoma) was 1.77 µM. The TGI (SK-MEL-5 melanoma) was 3.37 µM, the GI50 (A498 renal) was 18 µM and the TGI (A498 renal) was 31.8 µM. For the same compound, the GI50 (UO-31 renal) was 1.02 µM, the TGI (UO-31 renal) was 2.22 µM and the GI50 (CAKI-1 renal) was 3.46 µM. For the same compound, the TGI (CAKI-1 renal) was 18.1 µM, the GI50 (MDA-MB-435) was 1.9 µM and the TGI (MDA-MB-435) was 3.77 µM. It also gave a GI50 (OVCAR-3 ovarian) of 14.6 µM, a TGI (OVCAR-3 ovarian) of 27.8 µM and a GI50 (NCI-H460 lung) of 1.79 µM. It also gave a TGI (NCI-H460 lung) of 3.62 µM, a GI50 (RXF 393 renal) of 1.67 µM and a TGI (RXF 393 renal) of 3.42 µM. For the same compound, the GI50 (IGROV1 ovarian) was 12.7 µM, the TGI (IGROV1 ovarian) was 26.5 µM and the GI50 (PC-3 prostate) was 11.1 µM. It also gave a TGI (PC-3 prostate) of 71.7 µM, a GI50 (KM12 colon) of over 100 µM and a TGI (KM12 colon) of over 100 µM. For the same compound, the GI50 (HT29 colon) was 1.67 µM, the TGI (HT29 colon) was 3.18 µM and the GI50 (SK-MEL-28 melanoma) was 1.74 µM. It also gave a TGI (SK-MEL-28 melanoma) of 3.15 µM, a GI50 (U251 CNS) of 1.66 µM and a TGI (U251 CNS) of 3.1 µM. The GI50 (OVCAR-5 ovarian) was 2.04 µM, the TGI (OVCAR-5 ovarian) was 4.68 µM and the GI50 (A549 NSCLC) was 2.02 µM. It also gave a TGI (A549 NSCLC) of 5.02 µM, a GI50 (786-0 renal) of 1.57 µM and a TGI (786-0 renal) of 3.1 µM. It also gave a GI50 (HCC-2998 colon) of 11.7 µM, a TGI (HCC-2998 colon) of 23.9 µM and a GI50 (HOP-62 NSCLC) of 11.5 µM. For the same compound, the TGI (HOP-62 NSCLC) was 26.4 µM, the GI50 (SNB-75 CNS) was 13.2 µM and the TGI (SNB-75 CNS) was 26.5 µM. The GI50 (LOX IMVI melanoma) was 1.19 µM, the TGI (LOX IMVI melanoma) was 2.49 µM and the GI50 (SNB-19 CNS) was 16.1 µM. It also gave a TGI (SNB-19 CNS) of 31.2 µM, a GI50 (MOLT-4 leukemia) of 2.2 µM and a TGI (MOLT-4 leukemia) of 6.18 µM. It also gave a GI50 (DU-145 prostate) of 13.7 µM, a TGI (DU-145 prostate) of 26.6 µM and a GI50 (OVCAR-4 ovarian) of 15.9 µM. The TGI (OVCAR-4 ovarian) was 39.2 µM, the GI50 (SR leukemia) was 2.42 µM and the TGI (SR leukemia) was 6.64 µM. It also gave a GI50 (EKVX NSCLC) of 10.6 µM and a TGI (EKVX NSCLC) of 23.3 µM.
